# Publication PMC5983277 (Marine Drugs, 2018)
# Like-named read-outs stand apart in the source and are kept apart here.
# How the values were obtained:
# [1] = system: human epidermoid carcinoma cells (KB); assay: cells; conditions: Homo sapiens, KB, 72 h, read-out: percentage of inhibition of cellular proliferation of KB cells
# Protocol: (§1) The human cell line KB originated from the National Cancer Institute (NCI) and was grown in Dulbecco’s Modified Eagle Medium (D-MEM) medium supplemented with 10% foetal calf serum, in the presence of penicillin, streptomycin, and fungizone in a 75 mL flask under 5% CO2. A total of 600 cells were plated in 96-well tissue culture plates in 200 µL of medium and treated 24 h later with 2 μL of stock solution of compounds dissolved in DMSO using a Biomek 3000 (Beckman-Coulter, Brea, CA, USA). Controls received the same volume of DMSO (1% final volume). After 72 h exposure, cell titer 96 Aqueous One solution (Promega, Madison, WI, USA) was added and incubated for 3 h at 37 °C: the absorbance was monitored at 490 nm, and results were expressed as the inhibition of cell proliferation calculated as the ratio [(1 − (OD490 treated/OD490 control)) × 100] in triplicate experiments.
# Eel AChE = system: Eel AChE; set-up: key to mode of AChE inhibition: NCI: non competitive inhibition; CI: competitive inhibition; ND: non described; conditions: cited from earlier work; for IC50: read-out: AChE inhibition IC50
# [2] = system: Acanthurus triostegus (reef fish); assay: Reef fish feeding behavior experiment (bites on coral rubble); type: in vivo; conditions: for number of bites on coral pieces per recruit and per hour (in words): A. triostegus recruits (larvae undergoing metamorphosis), 1 μg/mL in tank, 72 h, p < 0.01
# Protocol: Manini (Acanthurus triostegus) were caught during new moon nights on the foreshore puddles at Tema’e public beach. Recruits (fish larvae undergoing metamorphosis) and juveniles (larvae after the recruits stage) were collected and immediately used for the experiments. Natural lagoon sea-water was used and UV-sterilized prior use. Three conditions were tested on three groups: control, solvent, 1 μg/mL sponge extract treatment, with 4 or 5 fishes in each 3 L tank. The fishes were exposed under semi-static system for 72 h, the experimental solutions were renewed every 24 h to maintain clean experimental conditions. The experiments were performed with fish recruits and juveniles. Rubbles were disposed in each aquarium 1 h/day during 3 days. Feeding behavior experiment consists in counting the overall number of bites on those rubbles in each aquarium. Six videos sequences (N = 6) of 5 or 10 min per aquarium and per day were analyzed. Results are expressed in number of bites per fish and per hour.
# All the values of AChE activity are represented in a boxplot distribution, because of non-normality of variable distribution (N = 4 or 5). The significant differences between controls and treatments (p-value p < 0.05) were analyzed with non-parametric test of Wilcoxon Mann Whitney. In feeding deterrent assay, pairs significant differences between different conditions (p < 0.05) were tested with non-parametric Kruskal Wallis test. All statistical assays were executed using R software (R-3.2.0, The R Foundation for Statistical Computing, Vienna, Austria).
# [3] = system: Poecilia reticulata (guppy); assay: Guppy acute toxicity bioassay (bathing, 1 h); type: in vivo; conditions: guppies
# Protocol: (§2) The screening of our French Polynesian sponges extract library was performed on acetylcholinesterase inhibitor (AChE) in the aim to investigate a possible chemical defense of sessile organisms on the reef against fishes, their main predators. […] In order to try to evaluate the effect of psammaplysene D in the environment, it was further tested on fresh water fish (guppy, Poecilia reticulata) and reef fish (Acanthurus triostegus) feeding experiment using bathing with or without the bioactive compound. Guppies are fed with commercial flakes, but the wild reef fish feed on natural coral heads, and their appetite evaluated by counting the bites on the corals. Two experiments were run on guppies using Suberea ianthelliformis crude extract and purified psammaplysene D (1): an acute toxicity bioassay (100 μg/mL of crude extract or purified psammaplysene D (1), 1 h) and a chronic toxicity (5 μg/mL of crude extract or 1 μg/mL of purified psammalysene D (1), 72 h).
# 5 to 8 cm long guppies (Poecilia reticulata) were collected at night in a private fresh water pool at Papara (Tahiti, French Polynesia) and immediately acclimated at the laboratory temperature (25 °C). After acclimatization, fishes were parted in two 2 L tanks: one for the control group treated with solvent (N = 5). Another experiment was performed using a 1 h treatment with 100 μg/mL of crude extract of the sponge or purified psammaplysene D (1) to check their acute toxicity.
# in vitro = conditions: human
# Protocol: as §1
# [4] = system: Poecilia reticulata (guppy); assay: Guppy chronic (sub-lethal) exposure, feeding on flakes; type: in vivo; conditions: guppies, sub-lethal dose 1 μg/mL purified compound, 24 h exposure (72 h experiment)
# Protocol: as §2
# 5 to 8 cm long guppies (Poecilia reticulata) were collected at night in a private fresh water pool at Papara (Tahiti, French Polynesia) and immediately acclimated at the laboratory temperature (25 °C). After acclimatization, fishes were parted in two 2 L tanks: one for the control group treated with solvent (N = 5). […]
# [5] = target: T1, acetylcholinesterase (AChE) (Homo sapiens, UniProt P22303); assay: Acetylcholinesterase inhibition assay (Ellman's colorimetric method) and kinetic study; type: biochemical
# T1 construct: purchased Sigma-Aldrich
# Protocol: The crude extract of the sponge and the purified psammaplysene D (1) were dissolved in DMSO at 10 mg/mL, stored at −20 °C and diluted subsequently 100 times in H2O prior testing. Determination of AChE-inhibitory activity was measured according the Ellman’s colorimetric method, in 96-well tissue culture plates. All reagents, buffers and salts were purchased from Sigma-Aldrich (Saint-Louis, MO, USA). Galantamine was used as a positive control for each analysis. Solvent controls received the same volume of water. After a 30 min incubation at 25 °C in the dark, absorbance was monitored at λ = 405 nm. Results were expressed as the percentage of enzyme inhibition calculated as the ratio: 100 × (ODcontrol − ODtreated)/(ODcontrol − ODblank), where the blanks are the wells without AChE. Serial dilutions of the compound or extract were prepared (100, 50, 25, 12.5, 6.25, 3.12, 1.56, and 0.78 μg/mL) and tested according to the same procedure using 10 μL of each solution. IC50 values were graphically determined by plotting the percentage of inhibition against the compound concentrations. Each assay was performed in triplicate and results are expressed as mean values ± S.D.
# The inhibition mode of psammaplysene D on AChE was determined while measuring the enzyme activity in presence of an increasing concentration of ATCI (0.024, 0.049, 0.098, 0.19, 0.39, 0.78, 1.57, and 3.15 μM), in absence or presence of 2 μg/mL final concentration of purified psammaplysene D. The inhibition mode, Vmax, and KM values were determined by double-reciprocal Lineweaver and Burk plot analysis (1934) of the data obtained.
# AChE = AChE activity in brain and gill extracts of exposed guppies; type: in vivo; conditions: guppies after 1 h exposure to 100 µg/mL, N = 5, p < 0.05
# Protocol: Brains and gills of these guppies were extracted and the AChE activity measured on the extracts (Figure 7a,b) [29].
# Figure 7 (a) AChE activity, U·mg^−1, after 1 h exposure to 100 µg/mL of Psammalysene D (1). […] Boxplot distribution was made with 5 fish (N = 5).
# All the values of AChE activity are represented in a boxplot distribution, because of non-normality of variable distribution (N = 4 or 5). The significant differences between controls and treatments (p-value p < 0.05) were analyzed with non-parametric test of Wilcoxon Mann Whitney. […] All statistical assays were executed using R software (R-3.2.0, The R Foundation for Statistical Computing, Vienna, Austria).
# Insect recombinant AChE = target: Insect recombinant AChE; set-up: method as in Sepcic et al. 2001 [33]; key to mode of AChE inhibition: NCI: non competitive inhibition; CI: competitive inhibition; ND: non described; conditions: ref Sepcic et al. 2001 [33], cited from earlier work
# Human recombinant AchE = system: Human recombinant AchE; set-up: method as in Sirimangkalakitti et al. 2015 [32]; key to mode of AChE inhibition: NCI: non competitive inhibition; CI: competitive inhibition; ND: non described; conditions: ref Sirimangkalakitti et al. 2015 [32], cited from earlier work; for IC50: read-out: AChE inhibition IC50
# T1 sequence (P22303 32-614, species assumed): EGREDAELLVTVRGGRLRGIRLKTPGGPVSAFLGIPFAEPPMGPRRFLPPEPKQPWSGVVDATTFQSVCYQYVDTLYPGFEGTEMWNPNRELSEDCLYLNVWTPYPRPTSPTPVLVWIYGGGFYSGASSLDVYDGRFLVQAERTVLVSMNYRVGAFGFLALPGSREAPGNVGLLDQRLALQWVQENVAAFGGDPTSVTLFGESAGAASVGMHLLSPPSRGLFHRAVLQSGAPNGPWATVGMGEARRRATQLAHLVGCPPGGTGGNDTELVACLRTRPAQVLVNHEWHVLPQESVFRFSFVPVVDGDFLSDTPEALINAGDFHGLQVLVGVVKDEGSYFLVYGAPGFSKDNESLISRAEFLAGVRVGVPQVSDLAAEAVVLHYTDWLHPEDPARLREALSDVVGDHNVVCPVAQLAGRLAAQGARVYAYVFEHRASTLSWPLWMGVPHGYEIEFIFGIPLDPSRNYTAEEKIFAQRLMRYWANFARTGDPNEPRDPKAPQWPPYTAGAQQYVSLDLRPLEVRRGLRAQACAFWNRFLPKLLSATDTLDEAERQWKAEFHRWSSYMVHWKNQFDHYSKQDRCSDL
molecule,measurement,setting,value
"CNC(Cc1cc(Br)c(OCCCN(C)C)c(Br)c1)C(=O)N(C)CCCOc1c(Br)cc(CCN(C)C)cc1Br (centres unmarked) [Anomoian E (8), anomoian E]",inhibition at 1 µM,[1],6 ± 2%
same,inhibition at 10 µM,[1],82 ± 1%
"CN(C)CCc1cc(Br)c(OCCCN(C)C(=O)C(Cc2cc(Br)c(O)c(Br)c2)N(C)C)c(Br)c1 (centres unmarked) [Anomoian C (6), O-demethyl anomoian B]",inhibition at 1 µM,[1],15 ± 3%
same,inhibition at 10 µM,[1],28 ± 5%
"CNC(Cc1cc(Br)c(O)c(Br)c1)C(=O)N(C)CCCOc1c(Br)cc(CCN(C)C)cc1Br (centres unmarked) [Anomoian D (7), O-demethyl anomoian A]",inhibition at 1 µM,[1],17 ± 2%
same,inhibition at 10 µM,[1],29 ± 2%
Purealidine Q,IC50,Eel AChE; ref Olatunji et al. 2014 [31],1.2 µM
same,mode of AChE inhibition,Eel AChE; ref Olatunji et al. 2014 [31],NCI
Aplysanzine A,IC50,Eel AChE; ref Olatunji et al. 2014 [31],104 µM
same,mode of AChE inhibition,Eel AChE; ref Olatunji et al. 2014 [31],NCI
"CN(C)CCCOc1c(Br)cc(/C=C/C(=O)N(C)CCCOc2c(Br)cc(CCN(C)C)cc2Br)cc1Br [Psammaplysene D (1), psammaplysene D]",behaviour of reef fish juveniles,[2]; A. triostegus juveniles,did not seem to be impacted
same,number of bites on coral pieces per recruit and per hour (in words),[2],loss of appetite from the first day of experiment
same,number of bites on coral pieces per recruit and per hour (in words),[2]; listed as psammaplysene D (1),significantly and readily decreased the number of bites
same,behaviour during acute exposure,"[3]; 100 μg/mL, bathing",totally confused and had uncontrolled mobility
same,acute toxicity outcome,"[3]; 100 μg/mL, one hour bathing",death
same,time to onset of behavioural effects after addition to the tank,[3]; acute exposure 100 μg/mL,20 min
same,inhibition at 1 µM,[1],95 ± 0.5%
same,inhibition at 10 µM,[1],100 ± 0.2%
same,IC50 at 72 h,in vitro,0.7 µM
same,feeding behaviour towards food flakes,[4],loss of appetite from the first day of experiment
same,feeding behaviour towards food flakes,[4]; listed as psammalysene D (1),passivity of the fish towards the food flakes
same,IC50,[5],1.3 µM
same,mode of AChE inhibition,[5]; Lineweaver-Burk plot,mixed competitive/non-competitive inhibition
same,Vmax,"[5]; Lineweaver-Burk, with 2 μg/mL psammaplysene D, decreasing from 0.0036",0.0007 µmol/min
same,AChE activity in gills (in words),AChE,mild but significant decrease
CN[C@@H](Cc1cc(Br)c(OC)c(Br)c1)C(=O)NCCc1cc(Br)c(OCCCN(C)C)c(Br)c1 [Isoanomoian A],IC50,Eel AChE; ref Olatunji et al. 2014 [31],70 µM
same,mode of AChE inhibition,Eel AChE; ref Olatunji et al. 2014 [31],NCI
"CN(C)CCc1cc(Br)c(OCCCN(C)C(=O)/C=C/c2cc(Br)c(O)c(Br)c2)c(Br)c1 [Psammaplysene F (2), psammaplysene F]",inhibition at 1 µM,[1],20 ± 0.2%
same,inhibition at 10 µM,[1],73 ± 2%
"CN(C)CCCOc1c(Br)cc(CC(C(=O)N(C)CCCOc2c(Br)cc(CCN(C)C)cc2Br)N(C)C)cc1Br (centres unmarked) [Anomoian F (9), anomoian F]",inhibition at 1 µM,[1],20 ± 0.6%
same,inhibition at 10 µM,[1],100 ± 0.5%
"O=C(O)c1cc(O)c2c(O)ccc(O)c2n1 [5-hydroxy xanthenuric acid (11), 4,5,8-trihydroxyquinoline-2-carboxilic acid]",inhibition at 1 µM,[1],6 ± 0.5%
same,inhibition at 10 µM,[1],25 ± 1%
Br.COc1c(Br)cc(C/C(=N\O)C(=O)NCCc2cc(Br)c(OCCCN)c(Br)c2)cc1Br [Aplysamine-4],Ki,"Eel AChE; ref Sepcic et al. 2001 [33], read-out: AChE inhibition KI",16 µM
same,mode of AChE inhibition,Eel AChE; ref Sepcic et al. 2001 [33],NCI
same,Ki,Insect recombinant AChE; read-out: AChE inhibition KI,2 µM
same,mode of AChE inhibition,Insect recombinant AChE,NCI
COC1=C(Br)[C@H](O)[C@@]2(C=C1Br)CC(C(=O)NCCCCCNC(=O)C1=NO[C@]3(C=C(Br)C(OC)=C(Br)[C@@H]3O)C1)=NO2 [Homoaerothionin],IC50,Human recombinant AchE,4.5 µM
same,mode of AChE inhibition,Human recombinant AchE,CI
COC1=C(Br)C(O)C2(C=C1Br)CC(C(=O)NCC(O)COc1c(Br)cc(C3CNC(=O)O3)cc1Br)=NO2 (centres unmarked) [Fistularin 1],IC50,Human recombinant AchE,47.5 µM
"CN(C)CCc1cc(Br)c(OCCCN(C)C(=O)/C=C\c2cc(Br)c(O)c(Br)c2)c(Br)c1 [Psammaplysene G (3), psammaplysene G]",inhibition at 1 µM,[1],17 ± 1%
same,inhibition at 10 µM,[1],75 ± 0.4%
"CN(C)CCc1cc(Br)c(O)c(Br)c1 [N,N-dimethyldibromotyramine (10), N,N-dimethyldibromotyramine]",inhibition at 1 µM,[1],89 ± 1%
same,inhibition at 10 µM,[1],100 ± 1%
